Experimental data: US10849990B2 (priority 2018, dated 2020)

Tests used:
SPR-KO mice [1] = settings: mouse, in vivo
VL neurons = assay: In vivo spike recording of spontaneous rebound firing in SPR-KO mice; settings: mouse
SPR-KO mice [2] = assay: Tremor test in SPR-KO mice; settings: mouse, in vivo

SMILES: N[C@@H](Cc1ccc(O)c(O)c1)C(=O)O [L-DOPA]
- motor problems (akinesia, gait disturbance, tremor) (SPR-KO mice [1]): ameliorated

SMILES: CCC1(C)CC(=O)NC1=O (stereo not drawn) [ethosuximide]
- spontaneous rebound firing of VL neurons (VL neurons): reduced spontaneous rebound firing
- abnormal motor functions (tremor score) (SPR-KO mice [2]): ameliorated
